Experimental data from ChEMBL document CHEMBL5376004, “Discovery and Development of Quinazolinones and Quinazolinediones for Ameliorating Nonalcoholic Fatty Liver Disease (NAFLD) by Modulating COP1-ATGL Axis” (J Med Chem, 2023).
In brackets after ≈: the same amount, converted by molar mass. One block for each compound: values may come before it. Activity calls are given as the source filed them. The rule behind the calls is not given here.

How the values were obtained:
COP1-AGTL (Homo sapiens) = COP1-AGTL (Homo sapiens) (UniProt Q96AD5+Q8NHY2); assay: Induction of COP1 to ATGL stabilization (unknown origin) expressed in HEK293-A cells assessed as reduction in ATGL ubiquitination incubated for 6 hrs by Western blotting analysis; assay type: cell-based
[1] = Stability in mouse plasma assessed as compound remaining after 2 hrs; assay type: ADME, cell-free; details: read-out: Stability
[2] = Aqueous solubility of compound at pH 7.4; assay type: physicochemical
[3] = Stability in human plasma assessed as compound remaining after 2 hrs; assay type: ADME, cell-free; details: read-out: Stability
[4] = Metabolic stability in mouse liver microsomes assessed as intrinsic clearance per mg of protein; assay type: ADME, Microsome; details: read-out: CLH
[5] = Metabolic stability in mouse liver microsomes assessed as hepatic blood flow; assay type: ADME, Microsome; details: read-out: QH
[6] = Metabolic stability in mouse liver microsomes assessed as half life; assay type: ADME, Microsome
[7] = Lipophilicity, logD of compound; assay type: physicochemical; details: octanol/water
[8] = Metabolic stability in human liver microsomes assessed as hepatic blood flow; assay type: ADME, Microsome; details: read-out: QH
[9] = Metabolic stability in human liver microsomes assessed as intrinsic clearance per mg of protein; assay type: ADME, Microsome; details: read-out: CLH
[10] = Metabolic stability in human liver microsomes assessed as half life; assay type: ADME, Microsome
Hepatocyte = assay: Upregulation of ATGL protein level in mouse primary hepatocytes incubated for 24 hrs by Western blotting analysis; assay type: functional, cell-based; details: dose 10-500 nM
HepG2 = assay: Reduction in lipid droplets in human HepG2 cells by […] staining based confocal microscopic analysis; assay type: functional, cell-based

COP1-AGTL (Homo sapiens), sequence (Q8NHY2 whole entry, looked up): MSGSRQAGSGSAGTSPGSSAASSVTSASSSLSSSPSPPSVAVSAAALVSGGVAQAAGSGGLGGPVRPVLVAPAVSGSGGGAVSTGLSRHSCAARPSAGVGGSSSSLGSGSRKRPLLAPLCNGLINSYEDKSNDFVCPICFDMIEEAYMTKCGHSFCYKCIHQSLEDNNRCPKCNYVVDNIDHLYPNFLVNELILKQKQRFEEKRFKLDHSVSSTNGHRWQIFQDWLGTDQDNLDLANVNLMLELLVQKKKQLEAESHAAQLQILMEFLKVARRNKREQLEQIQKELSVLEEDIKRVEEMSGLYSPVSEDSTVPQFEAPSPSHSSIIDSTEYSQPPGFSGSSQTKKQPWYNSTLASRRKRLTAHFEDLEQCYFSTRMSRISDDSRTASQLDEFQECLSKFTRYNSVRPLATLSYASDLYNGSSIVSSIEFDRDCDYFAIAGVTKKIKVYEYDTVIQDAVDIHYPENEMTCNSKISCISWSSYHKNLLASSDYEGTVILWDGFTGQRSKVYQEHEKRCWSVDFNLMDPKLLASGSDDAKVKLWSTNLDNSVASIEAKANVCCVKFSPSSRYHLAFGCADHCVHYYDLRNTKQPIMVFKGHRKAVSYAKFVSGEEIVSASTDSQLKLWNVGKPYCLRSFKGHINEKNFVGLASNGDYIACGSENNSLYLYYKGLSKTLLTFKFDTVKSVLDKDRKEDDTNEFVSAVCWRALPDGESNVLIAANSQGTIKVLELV
COP1-AGTL (Homo sapiens), sequence (Q96AD5 whole entry, looked up): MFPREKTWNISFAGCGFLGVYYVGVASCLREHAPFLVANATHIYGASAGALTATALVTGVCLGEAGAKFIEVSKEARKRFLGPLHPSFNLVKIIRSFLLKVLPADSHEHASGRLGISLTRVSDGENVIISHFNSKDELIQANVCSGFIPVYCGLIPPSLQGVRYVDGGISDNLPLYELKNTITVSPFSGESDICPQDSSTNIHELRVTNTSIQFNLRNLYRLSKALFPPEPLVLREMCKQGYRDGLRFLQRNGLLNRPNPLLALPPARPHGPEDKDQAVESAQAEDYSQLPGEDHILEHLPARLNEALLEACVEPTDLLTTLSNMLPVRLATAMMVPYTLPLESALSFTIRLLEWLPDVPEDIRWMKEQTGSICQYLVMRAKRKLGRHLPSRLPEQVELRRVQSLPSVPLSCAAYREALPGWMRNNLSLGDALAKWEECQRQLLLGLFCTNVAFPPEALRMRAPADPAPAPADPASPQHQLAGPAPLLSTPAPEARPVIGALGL

Activity (COP1-AGTL (Homo sapiens)): inactive
Compound: COCCn1cnc2ccc(NC(=O)N3CCCCC3)cc2c1=O

Activity (COP1-AGTL (Homo sapiens)): Active
Compound: COCCn1c(=O)c2cc(NC(=O)Nc3cccc(C(C)=O)c3)ccc2n(C)c1=O

Activity (COP1-AGTL (Homo sapiens)): inactive
Compound: CC(=O)c1cccc(NC(=O)Nc2ccc3ncn(CCN(C)C)c(=O)c3c2)c1

Activity (COP1-AGTL (Homo sapiens)): inactive
Compound: CC(=O)c1cccc(NC(=O)Nc2ccc3ncn(CCN4CCCCC4)c(=O)c3c2)c1

Activity (COP1-AGTL (Homo sapiens)): inactive
Compound: COCCn1cnc2ccc(NC(=O)Nc3cccc(C(C)=O)c3)c(-c3ccc(OC)cc3)c2c1=O

Activity (COP1-AGTL (Homo sapiens)): inactive
Compound: COCCn1cnc2ccc(NC(=O)Nc3cccc(C(F)(F)F)c3)cc2c1=O

Activity (COP1-AGTL (Homo sapiens)): inactive
Compound: COCCn1cnc2ccc(NC(=O)Nc3ccccc3C(F)(F)F)cc2c1=O

Compound: CC(C)[N+](C)(CCOC(=O)C1c2ccccc2Oc2ccccc21)C(C)C [PROPANTHELINE]
remaining at 2 h [1]: 0%

solubility [2]: 3.4 µg/mL (≈ 7.4 µM)
remaining at 2 h [3]: 10.3%
microsomal CLint [4]: 7.5 µL/min/mg
Activity (COP1-AGTL (Homo sapiens)): Active
hepatic extraction ratio [5]: 0.167
half-life [6]: 1.78 h
logD [7]: 1.95
Compound: COCCn1cnc2ccc(NC(=O)Nc3cccc(C(C)=O)c3)c(Br)c2c1=O

Activity (COP1-AGTL (Homo sapiens)): inactive
Compound: COCCn1cnc2ccc(NC(=O)NC3CCN(C)CC3)cc2c1=O

Activity (COP1-AGTL (Homo sapiens)): Active
Compound: COCCCn1cnc2ccc(NC(=O)Nc3cccc(C(C)=O)c3)cc2c1=O

Activity (COP1-AGTL (Homo sapiens)): inactive
Compound: COCCn1cnc2ccc(NC(=O)Nc3cccc(C(C)=O)c3)c(-c3ccc(OC)nc3)c2c1=O

hepatic extraction ratio [8]: 0.175
solubility [2]: 124 µg/mL (≈ 252 µM)
microsomal CLint [9]: 4.6 µL/min/mg
half-life [10]: 2.56 h
remaining at 2 h [3]: 32.8%
remaining at 2 h [1]: 50.3%
microsomal CLint [4]: 13 µL/min/mg
Activity (COP1-AGTL (Homo sapiens)): Active
hepatic extraction ratio [5]: 0.26
half-life [6]: 0.895 h
logD [7]: 2.58
Compound: COCCn1c(=O)c2cc(NC(=O)Nc3cccc(C(C)=O)c3)ccc2n(CCN2CCCC2)c1=O

Activity (COP1-AGTL (Homo sapiens)): Active
Compound: COCCn1cnc2ccc(NC(=O)Nc3ccc(OC)cc3)cc2c1=O

Activity (COP1-AGTL (Homo sapiens)): inactive
Compound: CC(=O)c1cccc(NC(=O)Nc2ccc3ncn(CCCN4CCOCC4)c(=O)c3c2)c1

Activity (COP1-AGTL (Homo sapiens)): inactive
Compound: CCc1cccc(NC(=O)Nc2ccc3ncn(CCOC)c(=O)c3c2)c1

Activity (COP1-AGTL (Homo sapiens)): inactive
Compound: COCCn1cnc2ccc(NC(=O)Nc3cccc(C(C)O)c3)cc2c1=O (stereo unspecified)

Activity (COP1-AGTL (Homo sapiens)): inactive
Compound: COCCn1cnc2ccc(NC(=O)Nc3ccccc3)cc2c1=O

Activity (COP1-AGTL (Homo sapiens)): inactive
Compound: COCCn1cnc2ccc(NC(=O)Nc3ccc(F)cc3)cc2c1=O

Activity (COP1-AGTL (Homo sapiens)): inactive
Compound: COCCn1cnc2ccc(NC(=O)Nc3cccc(C(C)=O)c3)c(-c3ccc(C(F)(F)F)cc3)c2c1=O

Activity (COP1-AGTL (Homo sapiens)): inactive
Compound: COCCn1cnc2ccc(NC(=O)Nc3ccc(C(F)(F)F)cc3)cc2c1=O

Activity (COP1-AGTL (Homo sapiens)): inactive
Compound: COCCn1cnc2ccc(NC(=O)N(C)C)cc2c1=O

Activity (COP1-AGTL (Homo sapiens)): inactive
Compound: CCn1cnc2ccc(NC(=O)Nc3cccc(C(C)=O)c3)cc2c1=O

hepatic extraction ratio [8]: 0.262
solubility [2]: 9.6 µg/mL (≈ 22.1 µM)
microsomal CLint [9]: 7.7 µL/min/mg
half-life [10]: 1.5 h
remaining at 2 h [3]: 62%
remaining at 2 h [1]: 52.6%
microsomal CLint [4]: 8.2 µL/min/mg
Activity (COP1-AGTL (Homo sapiens)): inactive
hepatic extraction ratio [5]: 0.183
half-life [6]: 1.41 h
logD [7]: 4.25
Compound: COCCn1cnc2ccc(NC(=O)Nc3cccc(C(=O)C(F)(F)F)c3)cc2c1=O

Activity (COP1-AGTL (Homo sapiens)): inactive
Compound: CC(=O)c1cccc(NC(=O)Nc2ccc3ncn(CCN4CCOCC4)c(=O)c3c2)c1

hepatic extraction ratio [8]: 0.415
solubility [2]: 27 µg/mL (≈ 61.9 µM)
microsomal CLint [9]: 15.3 µL/min/mg
half-life [10]: 0.753 h
remaining at 2 h [3]: 74.6%
remaining at 2 h [1]: 118%
microsomal CLint [4]: 31.7 µL/min/mg
Activity (COP1-AGTL (Homo sapiens)): inactive
hepatic extraction ratio [5]: 0.462
half-life [6]: 0.367 h
logD [7]: 2.54
Compound: COCCn1cnc2ccc(NC(=O)Nc3cccc(C(O)C(F)(F)F)c3)cc2c1=O (stereo unspecified)

Activity (COP1-AGTL (Homo sapiens)): inactive
Compound: COCCn1cnc2ccc(NC(=O)Nc3cccc(C(=O)c4ccccc4)c3)cc2c1=O

hepatic extraction ratio [8]: 0.403
solubility [2]: 2.8 µg/mL (≈ 6.39 µM)
microsomal CLint [9]: 14.6 µL/min/mg
half-life [10]: 0.793 h
remaining at 2 h [3]: 80.8%
remaining at 2 h [1]: 90.7%
microsomal CLint [4]: 42.6 µL/min/mg
Activity (COP1-AGTL (Homo sapiens)): inactive
hepatic extraction ratio [5]: 0.536
half-life [6]: 0.272 h
logD [7]: 2.67
Compound: COCCn1c(=O)c2cc(NC(=O)Nc3cccc(C(C)=O)c3)ccc2n(C(C)C)c1=O

solubility [2]: 31.9 µg/mL (≈ 67.2 µM)
remaining at 2 h [3]: 44.9%
microsomal CLint [4]: 456 µL/min/mg
Activity (COP1-AGTL (Homo sapiens)): inactive
hepatic extraction ratio [5]: 0.925
half-life [6]: 0.025 h
logD [7]: 1.9
Compound: COCCn1cnc2ccc(NC(=O)Nc3cccc(C(C)=O)c3)c(-c3ccc(F)cc3)c2c1=O

Activity (COP1-AGTL (Homo sapiens)): inactive
Compound: CC(=O)c1cccc(NC(=O)Nc2ccc3nc[nH]c(=O)c3c2)c1

hepatic extraction ratio [8]: 0.184
solubility [2]: 21.5 µg/mL (≈ 58.4 µM)
microsomal CLint [9]: 4.9 µL/min/mg
half-life [10]: 2.4 h
remaining at 2 h [3]: 73.9%
remaining at 2 h [1]: 84.5%
microsomal CLint [4]: 11 µL/min/mg
Activity (COP1-AGTL (Homo sapiens)): Active
hepatic extraction ratio [5]: 0.231
half-life [6]: 1.05 h
logD [7]: 3.02
Compound: COCCn1cnc2ccc(NC(=O)Nc3cccc(OC)c3)cc2c1=O
Activity (Hepatocyte): Dose-Dependent Effect
Activity (HepG2): Active

hepatic extraction ratio [8]: 0.076
solubility [2]: 0.8 µg/mL (≈ 2.02 µM)
microsomal CLint [9]: 1.8 µL/min/mg
half-life [10]: 7.16 h
remaining at 2 h [3]: 97.4%
remaining at 2 h [1]: 68.4%
microsomal CLint [4]: 11.4 µL/min/mg
Activity (COP1-AGTL (Homo sapiens)): Active
hepatic extraction ratio [5]: 0.228
half-life [6]: 1.25 h
logD [7]: 2.17
Compound: COCCn1c(=O)[nH]c2ccc(NC(=O)Nc3cccc(C(C)=O)c3)cc2c1=O

Activity (COP1-AGTL (Homo sapiens)): inactive
Compound: COCCn1cnc2ccc(NC(=O)Nc3ccccc3OC)cc2c1=O

Activity (COP1-AGTL (Homo sapiens)): Active
Compound: COCCn1cnc2ccc(NC(=O)Nc3cccc(C(C)=O)c3)c(-c3ccccc3)c2c1=O

Activity (COP1-AGTL (Homo sapiens)): inactive
Compound: CCCCn1cnc2ccc(NC(=O)Nc3cccc(C(C)=O)c3)cc2c1=O

Compound: COCCn1cnc2ccc(NC(=O)Nc3cccc(C(C)=O)c3)c(C3=CCNCC3)c2c1=O
Activity (COP1-AGTL (Homo sapiens)): inactive

Activity (COP1-AGTL (Homo sapiens)): inactive
Compound: COCCn1cnc2ccc(NC(=O)Nc3cccc(C(C)=O)c3)c(C3CCNCC3)c2c1=O
